How the values were obtained:
TIE-2 = TIE-2 (Homo sapiens, UniProt Q02763); experiment: Inhibition of TIE-2 (flashplate kinase assay, poly(Glu, Tyr) phosphorylation, 33P-ATP); type: biochemical
Experimental: The TIE-2 tests can be carried out, for example, analogously to the methods indicated in WO 02/44156.
The assay determines the inhibiting activity of the substances to be tested in the phosphorylation of the substrate poly(Glu, Tyr) by Tie-2 kinase in the presence of radioactive ^33P-ATP. The phosphorylated substrate binds to the surface of a “flashplate” microtitre plate during the incubation time. After removal of the reaction mixture, the microtitre plate is washed a number of times and the radioactivity on its surface is subsequently measured. An inhibiting effect of the substances to be measured results in lower radioactivity compared with an undisturbed enzymatic reaction.

RAF = experiment: Inhibition of RAF; type: biochemical

Sequence of TIE-2 (Q02763 23-1124, species assumed): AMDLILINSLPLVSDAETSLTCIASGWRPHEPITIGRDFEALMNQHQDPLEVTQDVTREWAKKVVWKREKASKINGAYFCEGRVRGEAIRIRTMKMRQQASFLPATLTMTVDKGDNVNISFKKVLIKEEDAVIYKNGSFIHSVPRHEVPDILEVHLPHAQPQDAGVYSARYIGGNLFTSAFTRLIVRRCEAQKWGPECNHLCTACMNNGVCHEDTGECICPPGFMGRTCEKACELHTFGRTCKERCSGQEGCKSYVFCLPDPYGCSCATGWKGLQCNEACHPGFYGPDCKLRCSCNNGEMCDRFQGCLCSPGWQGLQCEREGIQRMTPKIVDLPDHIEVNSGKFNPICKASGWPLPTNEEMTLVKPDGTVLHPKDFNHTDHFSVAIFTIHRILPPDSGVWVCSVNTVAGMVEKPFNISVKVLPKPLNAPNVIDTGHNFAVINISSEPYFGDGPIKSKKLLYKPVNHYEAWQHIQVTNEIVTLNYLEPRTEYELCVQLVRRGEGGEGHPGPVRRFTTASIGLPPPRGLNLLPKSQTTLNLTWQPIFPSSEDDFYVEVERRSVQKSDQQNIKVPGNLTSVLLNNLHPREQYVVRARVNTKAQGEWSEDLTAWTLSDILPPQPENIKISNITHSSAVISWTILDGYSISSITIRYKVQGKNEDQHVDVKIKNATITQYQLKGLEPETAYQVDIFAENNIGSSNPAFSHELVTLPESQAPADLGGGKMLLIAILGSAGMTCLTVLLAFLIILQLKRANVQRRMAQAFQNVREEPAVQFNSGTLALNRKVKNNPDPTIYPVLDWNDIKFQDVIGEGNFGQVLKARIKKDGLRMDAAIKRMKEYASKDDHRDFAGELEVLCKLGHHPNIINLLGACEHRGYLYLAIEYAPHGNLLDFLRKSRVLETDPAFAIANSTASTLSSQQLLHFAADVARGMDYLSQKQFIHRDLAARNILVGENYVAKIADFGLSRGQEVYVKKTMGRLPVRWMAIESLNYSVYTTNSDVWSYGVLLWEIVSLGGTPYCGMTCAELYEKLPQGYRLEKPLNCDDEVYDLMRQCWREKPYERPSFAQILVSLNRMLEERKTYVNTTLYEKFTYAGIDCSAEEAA

IC50 (TIE-2): 310 nM | IC50 (RAF): > 1000 nM
Structure (SMILES): O=[N+]([O-])c1cc(Cl)cc2nc(Nc3ccc(Sc4ccncc4)cc3)oc12 [(5-Chloro-7-nitrobenzoxazol-2-yl)-[4-(pyridin-4-ylsulfanyl)phenyl]amine]

— patent US8242128B2, “1,3-benzoxazolyl derivatives as kinase inhibitors” (Merck Patent GmbH, priority 2003, dated 2012)
